Measured values published in patent publication US9241917B2, “Facially amphiphilic polymers and oligomers and uses thereof” (priority 2003, dated 2016).
≈ marks a conversion by molar mass, not a printed value.

What was measured:
Heparin = assay: Clotting time of activated plasma in the presence of heparin; format: biochemical; set-up: unit not given here; conditions: heparin 1 unit, 0.2 ug/ml
[1] = test system: low molecular weight heparin (LMWH, Innohep); assay: Clotting time of activated plasma in the presence of LMWH; format: biochemical; conditions: for Clotting time of activated plasma: LMWH 4.6 ug/ml
[2] = test system: Candida albicans ATCC 10231; assay: Antifungal growth assay (MIC100), Candida albicans; format: cell-based; conditions: ATCC10231, 20 h
Method: (§1) Several different genera of fungi were tested for their sensitivity to a set of salicylamide and arylamide oligomers. Both non-filamentous (yeast) and filamentous fungi were tested and specific fungi that are associated with various types of human infections were chosen for the screen (Table 4). […] All growth assays were done in a total of 1 ml volumes and growth was assessed by turbidity measurements. Other assay conditions are described in Table 6.

[3] = test system: Aspergillus fumigatus ATCC 1028; assay: Antifungal growth assay (MIC100), Aspergillus fumigatus; format: cell-based; conditions: ATCC1028, 48 h, complete inhibition of growth, 2 days, 28° C.
Method: as §1

[4] = test system: Cryptococcus neoformans ATCC 24067; assay: Antifungal growth assay (MIC100), Cryptococcus neoformans; format: cell-based; conditions: ATCC24067, 48 h, complete inhibition of growth, 2 days, 37° C.
Method: as §1

[5] = test system: Trichophyton mentagrophytes ATCC 9533; assay: Antifungal growth assay (MIC100), Trichophyton mentagrophytes; format: cell-based; conditions: ATCC9533, 72 h, complete inhibition of growth, 3 days, 28° C.
Method: as §1

[6] = test system: Trichophyton rubrum ATCC 10218; assay: Antifungal growth assay (MIC100), Trichophyton rubrum; format: cell-based; conditions: ATCC10218, 72 h, complete inhibition of growth, 3 days, 28° C.
Method: as §1

E. coli (ATCC25922) = assay: Growth assay (MIC100), E. coli control organism; format: cell-based; conditions: Escherichia coli, ATCC25922, 20 h
Method: as §1

human erythrocytes = assay: Hemolysis of human erythrocytes; format: cell-based
Method: For example, cytotoxic selectivity can be assessed by determining the hemolytic activity of the polymer or oligomer. Hemolytic activity assays are performed by measuring the degree of hemolysis of human erythrocytes following incubation in the presence of the polymer or oligomer and determining HC50 values. […] See also Javadpour, M. M., et al., J. Med. Chem. 39:3107-3113 (1996).
The toxicity to mammalian cells of polymers and oligomers of the present invention was evaluated using human blood obtained from healthy volunteers, anticoagulated with 0.1 volume of sodium citrate. The general procedure is as follows: Washed erythrocytes are suspended in either HEPES buffer, pH 7.4, containing 1 mM Mg2^+ and 1 mM Ca2^+ or in heated and unheated autologous serum obtained from clotted blood. Red cell agglutination is evaluated microscopically and red cell lysis is evaluated by measuring the amount of released hemoglobin spectroscopically. The effect of polymers on platelet function is studied by adding increasing concentrations of polymer to citrate-anticoagulated platelet-rich plasma. Platelet aggregation and secretion are then evaluated in a lumi-aggregometer (Chrono-Log).
One distinction is that the studies with Pmx10073 were done in whole blood. […] The concentrations of compound that are cytotoxic for mammalian cells were determined and compared to efficacious concentrations. […]

E. coli = assay: Antimicrobial assay, minimal inhibitory concentration against E. coli

Row | Compound | Clotting time, Average (Heparin; oligomer 4.4 ug/ml) | Clotting time, Trial #1 (Heparin; oligomer 4.4 ug/ml) | Clotting time, Trial #2 (Heparin; oligomer 4.4 ug/ml) | Clotting time, Trial #3 (Heparin; oligomer 4.4 ug/ml) | Clotting time, Trial #4 (Heparin; oligomer 4.4 ug/ml) | Clotting time of activated plasma ([1]; oligomer 14.8 ug/ml) | Clotting time, Average (Heparin; oligomer 44.4 ug/ml) | Clotting time, Trial #1 (Heparin; oligomer 44.4 ug/ml) | Clotting time, Trial #2 (Heparin; oligomer 44.4 ug/ml) | Clotting time, Trial #3 (Heparin; oligomer 44.4 ug/ml) | Clotting time, Trial #4 (Heparin; oligomer 44.4 ug/ml) | Clotting time of activated plasma ([1]; oligomer 0.4 ug/ml) | further results
1 | CC(C)CC(N)C(=O)Nc1cc(C(C)(C)C)cc(NC(=O)c2cccc(C(=O)Nc3cc(C(C)(C)C)cc(NC(=O)C(N)CC(C)C)c3SCCN)c2)c1SCCN (stereo not drawn) [#13] | 92.4 | 81.2 | 88.2 | 94.1 | 106.2 | 189.2 | – | – | – | – | – | – | –
2 | CC(C)CCOc1cc(OCCC(C)C)c(C(=O)NNC(=O)c2cc(C(=O)NCCN(C)C)c(OCCCCCN)cc2OCCCCCN)cc1C(=O)NNC(=O)c1cc(C(=O)NCCN(C)C)c(OCCCCCN)cc1OCCCCCN [Compound 19] | – | – | – | – | – | – | – | – | – | – | – | – | Antagonism of the delay in plasma clotting caused by LMWH, in words ([1]; oligomer 4.4 ug/ml, LMWH (Innohep) 4.6 ug/ml final concentration): significantly antagonized the delay in plasma clotting
3 | CC(C)CC(NC(=O)c1cc(NC(=O)C(CC(C)C)NC(=O)c2cc(NC(=O)C(CC(C)C)NC(=O)c3cc(NC(=O)C(CC(C)C)NC(=O)c4cc(NC(=O)C(CC(C)C)NC(=O)c5cc(N)ccc5OCCNC(=N)N)ccc4OCCNC(=N)N)ccc3OCCNC(=N)N)ccc2OCCNC(=N)N)ccc1OCCNC(=N)N)C(N)=O (stereo not drawn) [#10] | >400 | 113.8 | 317.6 | >450 | >450 | 97.6 | 38.7 | 40.7 | 35.6 | 36.7 | 33.7 | – | –
4 | CC(C)CCOc1ccc(NC(=O)C(CCCNC(=N)N)NC(=O)c2cc(NC(=O)C(CCCNC(=N)N)NC(=O)c3cc(NC(=O)C(CCCNC(=N)N)NC(=O)c4cc(NC(=O)C(CCCNC(=N)N)NC(=O)c5cc(N)ccc5OCCC(C)C)ccc4OCCC(C)C)ccc3OCCC(C)C)ccc2OCCC(C)C)cc1C(=O)NC(CCCNC(=N)N)C(N)=O (stereo not drawn) [#4] | 169.8 | 175.5 | 153.8 | 157.1 | 192.6 | 44.9 | 29.2 | 31.6 | 29.6 | 29.6 | 26.1 | 137.7 | –
5 | COc1ccc(NC(=O)C(CCCNC(=N)N)NC(=O)c2cc(NC(=O)C(CCCNC(=N)N)NC(=O)c3cc(NC(=O)C(CCCNC(=N)N)NC(=O)c4cc(NC(=O)C(CCCNC(=N)N)NC(=O)c5cc(N)ccc5OC)ccc4OC)ccc3OC)ccc2OC)cc1C(=O)NC(CCCNC(=N)N)C(N)=O (stereo not drawn) [#3] | 80.3 | 72.2 | 75.1 | 81.2 | 92.6 | 109.2 | 36.8 | 38.7 | 34.1 | 38.6 | 35.6 | – | –
6 | CC(C)(C)c1cc2c(OCC(=O)NCCCCCN)c(c1)Cc1cc(C(C)(C)C)cc(c1OCC(=O)NCCCCCN)Cc1cc(C(C)(C)C)cc(c1OCC(=O)NCCCCCN)Cc1cc(C(C)(C)C)cc(c1OCC(=O)NCCCCCN)C2 [#18] | 57.6 | 57.6 | – | – | – | 48.6 | – | – | – | – | – | 140.1 | –
7 | C[C@@H]1[C@H](O)[C@@H](C)/C=C/C=C/C=C/C=C/C=C/C=C/C=C/[C@H](O[C@@H]2O[C@H](C)[C@@H](O)[C@H](N)[C@@H]2O)C[C@@H]2O[C@](O)(C[C@@H](O)C[C@@H](O)[C@H](O)CC[C@@H](O)C[C@@H](O)CC(=O)O[C@H]1C)C[C@H](O)[C@H]2C(=O)O [Amphotericin] | – | – | – | – | – | – | – | – | – | – | – | – | MIC [2]: 0.1 µg/mL (≈ 0.108 µM); MIC [3]: 1 µg/mL (≈ 1.08 µM); MIC [4]: 0.1 µg/mL (≈ 0.108 µM); MIC [5]: 0.3 µg/mL (≈ 0.325 µM); MIC [6]: 1 µg/mL (≈ 1.08 µM); MIC (E. coli (ATCC25922)): 3 µg/mL (≈ 3.25 µM)
8 | CC(C)(C)c1cc(NC(=O)c2cc(OCCN)cc(C(=O)Nc3cc(C(C)(C)C)cc(NC(=O)[C@H](N)CCCNC(=N)N)c3SCCN)c2)c(SCCN)c(NC(=O)[C@H](N)CCCNC(=N)N)c1 [Compound 12] | – | – | – | – | – | – | – | – | – | – | – | – | Concentration lysing red cells (no lysis up to) (human erythrocytes): > 800 µM
9 | CC(C)(C)c1cc(NC(=O)c2cccc(C(=O)Nc3cc(C(C)(C)C)cc(NC(=O)[C@@H](N)CCCNC(=N)N)c3SCCN)c2)c(SCCN)c(NC(=O)[C@@H](N)CCCNC(=N)N)c1 [Compound 6] | – | – | – | – | – | – | – | – | – | – | – | – | HC50 RBC (human erythrocytes; Table 1, arylamide series, one hour incubation, 50% hemoglobin release): 715 µg/mL; MIC (E. coli; Escherichia coli, read-out: MIC E. coli): 6 µg/mL (≈ 6.51 µM); Antimicrobial activity against E. coli, in words (E. coli; text on Tables 1 and 2): highly potent and selective
10 | CC(C)CCOc1cc(OCCC(C)C)c(C(=O)NNC(=O)c2cc(C(=O)NCCN(C)C)c(OCCCCCN)cc2OCCCCCN)cc1C(=O)NNC(=O)c1cc(C(=O)NCCN(C)C)c(OCCCCCN)cc1OCCCCCN [#19] | 27.9 | 29.0 | 26.7 | – | – | 34 | – | – | – | – | – | 64.2 | Clotting time, Average (Heparin; oligomer 0.4 ug/ml): >400; Clotting time, Trial #1 (Heparin; oligomer 0.4 ug/ml): >400; Clotting time, Average (Heparin; oligomer 1.5 ug/ml): 40.2; Clotting time, Trial #1 (Heparin; oligomer 1.5 ug/ml): 43.2; Clotting time, Trial #2 (Heparin; oligomer 1.5 ug/ml): 37.1; Clotting time of activated plasma ([1]; oligomer 1.5 ug/ml): 232.8
